According to patent US20120208767A1, “Method to Detect or Treat Painful Bladder Syndrome based on Relation to Quinone Oxidoreductase 1” (University of Maryland, Baltimore, priority 2011, published 2012):
Peptide text beside a SMILES is read from it. * marks the point of attachment. Cbz = O=C(OCc1ccccc1)*

Assays:
[1] = tested on: proteasome; test: Proteasome inhibition after NQO1 siRNA knockdown in T24 cells, Western blot; type: cell-based, human; settings: NQO1 siRNA 24 h then MG-132 6 h, FIG. 6C
Description: Cell culture and Western blots. Cells were cultured in appropriate media (DMEM+1% p/s+10% FBS) and subcultured as necessary. Tissue homogenates were prepared by removing whole bladders from freshly-sacrificed mice killed with isoflurane inhalation and lysing tissue as a 10% homogenate in ice-cold RIPA buffer (50 mM Tris-Cl, pH 7.4, 150 mM NaCl, 1% NP-40, 1 mM EDTA, 0.5% Na Deoxycholate, and 1% Triton X100 with 1 mM PMSF and 1× Protease Inhibitor Cocktail (Complete, Roche)) using glass and Teflon pestle system, and further clarified via centrifugation at 14000 rpm at 4 degrees for 10 minutes. Homogenates were stored at −80° C. until use. Western blotting was performed essentially according to Towbin H, T. Staehelin, J. Gordon, “Electrophoretic transfer of proteins from polyacrylamide gels to nitrocellulose sheets: procedure and some applications,” Proc Natl Acad Sci USA, v76, pp 4350-4354, 1979.
(§1) FIG. 6A through FIG. 6E are Western blot images that illustrate example NQO1 regulation of energy metabolic regulator factor PGC1α in a bladder of a mouse model for PBS compared to wild-type mouse, according to an embodiment. FIG. 6A is a set of Western blot images that illustrate example relative occurrence of proteins in bladders from wild type mice (left) and NQO1−/− mice (right). Bladders from wild type and NQO1−/− mice were immunoblotted and probed with antibodies as indicated: for NQO1 in blot image 601; for AMPK in blot image 603; for CREB in blot image 605; and, for control GAPDH in blot image 607. FIG. 6B is a set of Western blot images that illustrate example relative occurrence of proteins in T24 human bladder carcinoma cells transfected with control (column C, 100 nM control siRNA) or NQO1-specific siRNA (columns 10, 50 and 150 nM NQO1 siRNA) for 24 h and then immunoblotted with indicated antibodies: for NQO1 in blot image 611; for CREB in blot image 613; for AMPK in blot image 615; for PGC1α in blot image 617; and, for control GAPDH in blot image 619. […]

[2] = tested on: NQO1 and 20S proteasome interaction with CREB and AMPK in T24; test: Immunoprecipitation of CREB and AMPK from T24 cells incubated with B[α]P; type: cell-based, human; settings: B[α]P 0, 10 and 100 nM, 16 h
Description: Immunoprecipitation. Human bladder carcinoma T24 cell line was cultured in DMEM+10% FBS+1% p/s at 37 degrees in 5% carbon dioxide before IP studies. Cells were incubated with chemicals as necessary and washed 3× in PBS on ice. Cells were scraped into microfuge tubes using RIPA buffer and protein A/G beads (SANTA CRUZ BIOTECH™ of Santa Cruz, Calif.) were equilibrated with 1 mg aliquots for 1 h. After equilibration, beads were removed and lysates were incubated o/n with 1:100 of relevant antibodies, and next day incubated with 30 microliters A/G beads for 1 h before 3× RIPA buffer wash and boiling 5 mins.
as §1, with “619. FIG. 6C is a set of Western blot images that illustrate example relative occurrence of proteins in T24 human bladder carcinoma cells transfected with control (column C, 100 nM control siRNA) or NQO1-specific siRNA (columns 50 and 100 nM NQO1 siRNA) for 24 h and then incubated for 6 h with vehicle (signified by -) or proteasome inhibitor MG-132 (signified by +) before lysis and separation via SDS-PAGE. The samples were probed with the antibodies indicated: for NQO1 in blot image 621; for CREB in blot image 623; for AMPK in blot image 625; for PGC1α in blot image 627; and, for control GAPDH in blot image 629. FIG. 6D and FIG. 6E are sets of Western blot images that illustrate example relative occurrence of proteins in T24 cells that were incubated for 16 h with B[α]P at concentrations of 0, 10 and 100 nanoMoles (nM, 1 nM=10^−9 Moles) and then immunoprecipitated with antibodies against CREB (in FIG. 6D) and AMPK (in FIG. 6E) overnight. IgG was used as immunoprecipitation control.” for “619.”

[3] = tested on: wild-type and NQO1−/− bladder cells; test: Ex vivo bladder cell culture, B[α]P-induced ROS (DCF fluorescence); type: cell-based, mouse
Description: Ex-vivo cell culture and chemical treatment. Whole bladders from age-matched female wild-type and NQO1−/− 24 weeks-old mice were excised from euthanized mice and minced in a 10 cm dish with a razorblade. Pieces were suspended in microfuge tubes containing 500 microliters of 1% […] reconstituted in PBS and incubated at 37 degrees with 700 rpm shaking for 45 minutes to dissociate cells from tissue. Tubes were centrifuged at 500 g for 3 minutes to pellet cells, and resuspended in full cell culture media. Cells were plated in 8-well tissue culture chamber slides (e.g., from LAB-TEK™) with cells from one bladder equally divided into one 8-well slide, into 1 mL media total volume. After 2-4 days of growth with daily media changes, cells were treated with various concentrations of benzopyrene dissolved in acetone, or acetone control in fresh media for 18 h, followed by removal and addition of DCF (SIGMA ALDRICH™) at 5 micromolar for 1 h. DCF was then removed and full media added for 1 h, followed by immediate mounting of cover slips in VectaShield (VECTOR LABS™ of Burlingame, Calif.) and viewing under FITC-viewing filter to determine fluorescence of ROS-modified DCF within cells. […]

Row | Compound | rescue of AMPK protein from down regulation [1] | rescue of CREB protein from down regulation [1] | rescue of PGC1α protein from down regulation [1] | 20S proteasome interaction with CREB ([2]; FIG. 6D) | NQO1 interaction with CREB ([2]; FIG. 6D) | 20S proteasome interaction with AMPK ([2]; FIG. 6E) | NQO1 interaction with AMPK ([2]; FIG. 6E) | stress signaling (count of ROS-positive, DCF-positive cells normalized to wild-type) ([3]; 100 μM B[α]P, 18 h, cells from 24 week-old female mice, NQO1−/− vs wild-type, P<0.05, FIG. 3C) | susceptibility to B[α]P-induced generation of reactive oxygen species (ROS) ([3]; NQO1−/− bladder cells relative to wild-type bladder cells, ex vivo)
1 | CC(C)C[C@@H](C=O)NC(=O)[C@H](CC(C)C)NC(=O)[C@H](CC(C)C)NC(=O)OCc1ccccc1 [MG-132] (Cbz-Leu-Leu-Leu-aldehyde) | rescued from down regulation | rescued from down regulation | not PGC1α proteins were rescued from down regulation |  |  |  |  |  | 
2 | benzo[α]pyrene [B[α]P] |  |  |  | more or less did not change | appears to be increased during stress conditions | more or less did not change | appears to be increased during stress conditions | significantly stronger stress than does wild-type | markedly increased susceptibility
